These molecules were tested against Histamine H2 receptor (Cavia porcellus, UniProt P47747) (assay: ChEBML_85064).
From the text: Histamine H2 receptor antagonistic activity

Chain of Histamine H2 receptor (P47747 whole entry): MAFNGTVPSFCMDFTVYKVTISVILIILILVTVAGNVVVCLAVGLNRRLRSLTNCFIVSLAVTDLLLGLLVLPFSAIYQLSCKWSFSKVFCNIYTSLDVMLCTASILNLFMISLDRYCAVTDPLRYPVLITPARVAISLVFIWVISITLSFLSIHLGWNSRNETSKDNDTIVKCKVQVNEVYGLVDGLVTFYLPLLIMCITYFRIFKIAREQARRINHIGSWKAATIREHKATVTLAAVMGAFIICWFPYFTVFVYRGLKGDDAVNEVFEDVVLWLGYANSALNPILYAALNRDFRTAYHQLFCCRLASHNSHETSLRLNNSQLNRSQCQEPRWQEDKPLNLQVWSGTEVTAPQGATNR

Row | Structure (SMILES) | IC50 [nM]
1 | C/N=c1\c(O)c(O)c1=NC/C=C\COc1csc(CN2CCCCC2)c1 | 1830
2 | CN(C)CC/N=c1\c(O)c(O)c1=NC/C=C\COc1csc(CN2CCCCC2)c1 | 809
3 | CC(C)/N=c1\c(O)c(O)c1=NC/C=C\COc1csc(CN2CCCCC2)c1 | 1930
4 | CN(C)Cc1cc(OC/C=C\CN=c2c(O)c(O)c2=N)cs1 | 684
5 | COCC/N=c1\c(O)c(O)c1=NC/C=C\COc1csc(CN2CCCCC2)c1 | 1140
